In patent US11219623B2, “Inflammasome inhibition for the treatment of Parkinson's disease, Alzheimer's disease and multiple sclerosis” (University of Kentucky Research Foundation, priority 2015, dated 2022):
Converted amounts (≈) assume the structure as drawn. “Also recorded” adds a separate entry of the source.

Legend:
[1] = LogP, partition coefficient in 1-octanol; assay type: physicochemical; settings: 1-octanol partition
Caspase-1 [2] = assay: iGLuc luminescence assay of ATP-induced Caspase-1 activation in J774 iGLuc cells; assay type: cell-based, mouse; settings: for Caspase-1 cleavage (luminescence): ATP 5 mM, drug 1 nM-100 μM, N=3; for reduction of inflammasome activation: ATP (5 mM), mouse J774 iGLuc cells, FIGS. 70-73
Protocol: Caspase-1 is the enzyme at the core of the inflammasome complex and is an important danger response signal and mediator of RPE cell death in AMD. […] Importantly, there was some difference between individual compounds in terms of the dose response curve, emphasizing the need to test each compound (with unique R group(s)) individually.
To obtain the data set forth in FIGS. 64-73, an iGLuc assay was conducted (modified from Bartok et al. iGLuc: a luciferase-based inflammasome and protease activity reporter. Nature Methods 2013; 10(2):147-54). Briefly, 100,000 iGLuc cells per well were plated in a 96 well plate overnight. The next morning, media is aspirated from the plate and replaced with 75 μL of serum free DMEM with drugs (NRTIs or modified NRTIs) for 30 min. After 30 minutes of drug exposure, 20 mM ATP (25 μL) is added for a final concentration of 5 mM. 50 μL of media from each well is collected and 50 μL of coelenterazine 4.4 μM is added to each sample, and luminescence is read immediately.

wild-type mice [3] = assay: pAlu-induced RPE degeneration, mouse model of dry AMD; assay type: in vivo; settings: intraperitoneal 25 mg/kg twice daily
Protocol: Mouse studies were conducted to study treatment with NRTIs or derivatives.

wild-type mice [4] = assay: Laser-induced choroidal neovascularization (CNV; wet AMD) in wild-type mice; settings: intravitreous 0.14 nmol; day 7; N=16
Solubility in water = assay type: physicochemical; settings: aqueous buffer; Water pH 7.2 at 37° C.
[5] = test system: human LINE-1 retrotransposon; assay: EGFP cell culture L1 retrotransposition assay in HeLa cells; assay type: cell-based; settings: 7 days after transfection, flow cytometry
Protocol: These findings pave way for the rational re-design and improvement of nucleoside analogs as novel therapeutics. The enhanced green fluorescent protein (EGFP) cell culture L1 retrotransposition assay was performed in HeLa cells. […] Transfected cells were selected in puromycin. 7 days after transfection, cells that underwent retrotransposition (EGFP-positive) were assayed by flow cytometry. Cells were gated based on background fluorescence of plasmid JM111, which has two point mutations in L1-ORF1 that abolish retrotransposition. Data are normalized with RPS set to 1.

wild-type mice [6] = assay: Alu RNA-induced RPE degeneration, mouse model of dry AMD; settings: intraperitoneal 25 mg/kg, twice daily for 6 days
Caspase-1 [7] = assay: Alu RNA-induced Caspase-1 activation, western blot, primary human RPE cells; assay type: cell-based
Source text: The bottom row in FIG. 5 is a vinculin loading control.

Caspase-1 [8] = assay: Iron (III) ammonium citrate-induced Caspase-1 activation, western blot, primary human RPE cells; assay type: cell-based; settings: Fe(III) ammonium citrate (100 μM)
Source text: Caspase-1 activation (p20 subunit) in primary human retinal pigment epithelium (RPE) cells in the presence of iron (III) ammonium citrate was studied.
Caspase-1 activation (p10 subunit) in primary human RPE cells in the presence of iron (III) ammonium citrate was studied.
Alu RNA is a toxic endogenous retroelement that accumulates in and causes death of the RPE in patients with dry AMD. […] FAC activates Caspase-1 via an Alu RNA intermediate, and induces NLRP3-dependent RPE degeneration (Gelfand et al. Cell Reports 2015). Fe(III) ammonium citrate (100 μM)-induced Caspase-1 activation in primary human RPE cells, monitored by western blotting, is reduced by TM-3TC (25 μM), d4T-ene (25 μM), 2Me-d4T (25 μM), Me-AZT (25-100 μM), and 2Me-AZT (25 μM). N=3-4.

[9] = test system: GFP-expressing lentivirus; assay: GFP-expressing lentivirus transduction/replication assay in HeLa cells; assay type: cell-based; settings: 10 μM; 72 hours; MOI 20
Protocol: All drugs were added at a concentration of 10 μM. Cells were imaged for GFP expression 72 hours after addition of lentivirus. GFP-positive cells per field of view were recorded. n=4-11, error bars S.E.M. Reverse transcription of lentivirus is essential for GFP expression; modified NRTIs should not block reverse transcriptase, whereas NRTIs are known to block reverse transcriptase.
The present disclosure further provides the results of additional experiments in FIG. 21-FIG. 23.

mtDNA = assay: Relative quantity of mtDNA, quantitative PCR, primary human RPE cells; settings: 50 μM; four days; relative to DMSO
human P2X7 receptor = biological target: T1, human P2X7 receptor (Homo sapiens, UniProt Q99572); settings: 64 μM drug; bzATP 100 μM; n=12
T1 sequence (Q99572 1-595): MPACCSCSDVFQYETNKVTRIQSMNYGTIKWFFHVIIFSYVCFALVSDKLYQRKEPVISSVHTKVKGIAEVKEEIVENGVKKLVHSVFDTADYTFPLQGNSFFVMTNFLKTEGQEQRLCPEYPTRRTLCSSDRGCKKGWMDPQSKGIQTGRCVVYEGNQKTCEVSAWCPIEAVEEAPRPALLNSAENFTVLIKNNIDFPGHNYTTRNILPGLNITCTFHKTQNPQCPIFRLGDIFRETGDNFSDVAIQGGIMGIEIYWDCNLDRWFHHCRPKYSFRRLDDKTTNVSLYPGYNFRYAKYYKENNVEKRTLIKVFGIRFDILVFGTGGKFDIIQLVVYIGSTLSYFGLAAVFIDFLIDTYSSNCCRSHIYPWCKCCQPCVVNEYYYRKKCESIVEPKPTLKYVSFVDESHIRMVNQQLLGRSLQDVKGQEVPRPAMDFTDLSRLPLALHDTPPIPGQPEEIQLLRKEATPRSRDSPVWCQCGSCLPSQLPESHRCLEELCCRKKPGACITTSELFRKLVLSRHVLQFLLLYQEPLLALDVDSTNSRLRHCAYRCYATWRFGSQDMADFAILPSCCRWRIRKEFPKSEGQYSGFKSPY

IL-1 beta = assay: MSU-induced IL-1 beta secretion from PMA-differentiated THP-1 monocytes, ELISA; assay type: cell-based, human; settings: 25-1000 uM
Source text: Human THP-1 monocytes were differentiated into macrophages with PMA.
To illustrate this, human THP-1 monocytes were differentiated into macrophages with PMA. Treatment with MSU increased IL-1 beta secretion compared to non-treated cells. […]

IL-18 = assay: LPS/ATP-induced IL-18 maturation, mouse bone marrow-derived macrophages; assay type: cell-based; settings: 100 uM; cell culture supernatants
Caspase-1 [10] = assay: LPS/ATP-induced Caspase-1 activation, mouse bone marrow-derived macrophages, western blot; settings: 100 uM; cell culture supernatants

logP [1] | solubility (Solubility in water) | SMILES | Caspase-1 cleavage (luminescence) (Caspase-1 [2]) | pAlu-induced RPE degeneration (wild-type mice [3]) | L1 retrotransposition (EGFP-positive cells) [5] | other results
1.17 | 10 µg/mL (≈ 0.0309 mM) | CCOC[C@H]1O[C@@H](n2cc(C)c(=O)n(CC)c2=O)C[C@@H]1N=[N+]=[N-] [Kamuvudine 2Et-AZT, 1-[(2R,4S,5 S)-4-azido-5-(ethoxymethyl)oxolan-2-yl]-3-ethyl-5-methyl-1,2,3,4-tetrahydropyrimidine-2,4-dione] | reduces Caspase-1 cleavage in a dose-dependent fashion | protects against RPE degeneration | no effect on L1 activity | choroidal neovascularization (CNV) volume (wild-type mice [4]): reduced choroidal neovascularization (CNV) volume
0.99 | 1500 µg/mL (≈ 5.63 mM) | CCn1c(=O)c(C)cn([C@H]2C=C[C@@H](COC)O2)c1=O [O-Me N-Et d4T, 3-ethyl-1-[(2R,5S)-5-(methoxymethyl)-2,5-dihydrofuran-2-yl]-5-methyl-1,2,3,4-tetrahydropyrimidine-2,4-dione] | reduces Caspase-1 cleavage in a dose-dependent fashion |  |  | reduction of inflammasome activation (Caspase-1 [2]): about 55%; Alu RNA-induced RPE degeneration (wild-type mice [6]): protects against Alu RNA-induced RPE degeneration; Alu RNA induced Caspase-1 activation (Caspase-1 [7]; 25 μM, N=3-4): reduced; choroidal neovascularization (CNV) volume (wild-type mice [4]): reduced choroidal neovascularization (CNV) volume
-1.1 | 64000 µg/mL (≈ 279 mM) | Nc1ccn([C@@H]2CS[C@H](CO)O2)c(=O)n1 [reference compound] |  |  |  | 
 |  | C=C1C=C[C@H](n2cc(C)c(=O)[nH]c2=O)O1 [d4T-ene] |  |  |  | iron-induced Caspase-1 activation (Caspase-1 [8]; 25 μM): blocked iron-induced Caspase-1 activation; also recorded: reduced; Alu RNA induced Caspase-1 activation (Caspase-1 [7]; 25-100 μM (25 and 100 μM)): blocked Alu-induced Caspase-1 activation; also recorded: reduced
 |  | Clc1cccc(-c2nnnn2Cc2cccnc2)c1Cl [Kamuvudine A438079] |  |  |  | P2X7-mediated YO-PRO-1 dye uptake induced by bzATP (human P2X7 receptor): inhibited
1.16 | 1600 µg/mL (≈ 5.1 mM) | CCOC[C@H]1O[C@@H](n2ccc(N(CC)CC)nc2=O)CS1 (stereo in doubt) [Kamuvudine 3Et-3TC, 4-(diethylamino)-1-[2-(ethoxymethyl)-1,3-oxathiolan-5-yl]-1,2-dihydropyrimidin-2-one] | reduces Caspase-1 cleavage in a dose-dependent fashion | protects against RPE degeneration | some residual interference with natural L1 activity | choroidal neovascularization (CNV) volume (wild-type mice [4]): reduced choroidal neovascularization (CNV) volume
 |  | COCC1O[C@@H](n2cc(C)c(=O)[nH]c2=O)CC1N=[N+]=N (stereo partly drawn) [Me-AZT, 1-[(5R)-2-(methoxymethyl)-5-(5-methyl-2,4-dioxo-1,2,3,4-tetrahydropyrimidin-1-yl)oxolan-3-yl]triaza-1,2-dien-2-ium] |  | restored to healthy RPE morphology/intercellular junctions | no effect on L1 activity | iron-induced Caspase-1 activation (Caspase-1 [8]; 25-100 μM): reduced; lentivirus replication (GFP-positive cells per field) [9]: do not block lentivirus replication; relative quantity of mtDNA (mtDNA depletion) (mtDNA): do not exhibit mtDNA depletion
 |  | Clc1ccc(C(c2ccc(Cl)cc2)n2cc[n+](CC(OCc3ccc(Cl)cc3Cl)c3ccc(Cl)cc3Cl)c2)cc1 (centres unmarked) [calmidazolium, reference compound] |  |  |  | Alu RNA-induced Caspase-1 activation/cleavage (Caspase-1 [7]; concentration not given): not inhibited
 |  | Nc1ncnc2c1ncn2[C@@H]1O[C@H](CO)C[C@H]1O [cordycepin] |  |  |  | IL-1beta secretion induced by MSU (IL-1 beta): did not significantly affect IL-1beta secretion; IL-18 maturation induced by LPS/ATP (IL-18): inhibit; Alu RNA-induced Caspase-1 maturation (Caspase-1 [7]; 50-100 uM, 24 hours after Alu administration): blocked; Caspase-1 activation (active p20 band) induced by LPS/ATP (Caspase-1 [10]): inhibit Caspase-1 activation
1.35 | 90 µg/mL (≈ 0.321 mM) | CCOC[C@@H]1C=C[C@H](n2cc(C)c(=O)n(CC)c2=O)O1 [Kamuvudine 2Et-d4T, 1-[(2R,5 S)-5-(ethoxymethyl)-2,5-dihydrofuran-2-yl]-3-ethyl-5-methyl-1,2,3,4-tetrahydropyrimidine-2,4-dione] | reduces Caspase-1 cleavage in a dose-dependent fashion | protects against RPE degeneration | no effect on L1 activity | reduction of inflammasome activation (Caspase-1 [2]): about 45%; Alu RNA induced Caspase-1 activation (Caspase-1 [7]; 25 μM, N=3-4): reduced

SMILES | logP [1] | solubility (Solubility in water) | Caspase-1 cleavage (luminescence) (Caspase-1 [2]) | pAlu-induced RPE degeneration (wild-type mice [3]) | L1 retrotransposition (EGFP-positive cells) [5] | other results
COC[C@H]1O[C@@H](n2cc(C)c(=O)n(C)c2=O)C[C@@H]1N=[N+]=[N-] [Kamuvudine 2Me-AZT, 1-[(2R,4S,5S)-4-azido-5-(methoxymethyl)oxolan-2-yl]-3,5-dimethyl-1,2,3,4-tetrahydropyrimidine-2,4-dione] | 0.45 | 940 µg/mL (≈ 3.18 mM) | reduces Caspase-1 cleavage in a dose-dependent fashion | restored to healthy RPE morphology/intercellular junctions | no effect on L1 activity | iron-induced Caspase-1 activation (Caspase-1 [8]; 25 μM): reduced; lentivirus replication (GFP-positive cells per field) [9]: do not block lentivirus replication; Alu RNA induced Caspase-1 activation (Caspase-1 [7]; 25 μM, N=3-4): reduced; relative quantity of mtDNA (mtDNA depletion) (mtDNA): do not exhibit mtDNA depletion
